In this assay the target is T1, P2X7 receptor (IL-1β release from THP-1 cells) (Homo sapiens, UniProt Q99572).
T1 construct: host or cells: THP-1 cells differentiated with LPS and IFN-γ
T1 sequence (Q99572 1-595): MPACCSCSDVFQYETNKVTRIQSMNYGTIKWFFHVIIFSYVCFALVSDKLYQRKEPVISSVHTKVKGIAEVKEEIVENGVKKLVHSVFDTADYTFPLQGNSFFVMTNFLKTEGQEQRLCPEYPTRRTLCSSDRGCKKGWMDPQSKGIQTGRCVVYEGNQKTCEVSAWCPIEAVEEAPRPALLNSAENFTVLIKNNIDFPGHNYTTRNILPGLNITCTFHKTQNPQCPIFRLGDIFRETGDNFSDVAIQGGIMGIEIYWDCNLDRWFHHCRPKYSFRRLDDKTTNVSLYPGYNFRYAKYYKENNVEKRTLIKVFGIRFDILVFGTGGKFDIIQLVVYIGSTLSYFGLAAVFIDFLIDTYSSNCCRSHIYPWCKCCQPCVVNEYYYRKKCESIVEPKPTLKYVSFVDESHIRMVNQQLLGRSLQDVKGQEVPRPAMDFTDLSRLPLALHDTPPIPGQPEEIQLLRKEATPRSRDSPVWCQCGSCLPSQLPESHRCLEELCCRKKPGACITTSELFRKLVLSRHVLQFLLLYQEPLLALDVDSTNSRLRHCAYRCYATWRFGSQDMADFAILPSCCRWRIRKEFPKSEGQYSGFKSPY
The assay can be described thus: IL-1β release assay in differentiated THP-1 cells stimulated with BzATP (Example 9). The class given is cell-based. Particulars: for inhibition at 0.3 µM: 0.3 μM concentration; for inhibition at 0.3 µM / inhibition at 0.1 µM: BzATP 250 uM, read-out: IL-1β % Inhib. @ 0.3 or 0.1 μM; for IC50: released IL-1β as in Example 9, four parameter logistic fit; for inhibition at 0.1 µM: 0.1 μM concentration. The method, then: The cells are then pretreated for 30 minutes with the compound of interest at the appropriate concentration in RPMI media containing 100 IU/mL penicillin, 100 ug/mL streptomycin. […] 30 uL of cell supernatant is then collected and IL-1β levels determined via ELISA (R&D systems Cat. #HSLB50) according to manufacturer's recommendations using the Tecan Safire plate reader. Background adjusted IL-1β levels of drug treated and non-treated cells are used to calculate the percent inhibition.
The compounds set forth in Table 1 were tested for activity in a cellular model as described herein. […] Measurements were made and IC50 values, presented in Table 2, below, were determined by fitting the data to a four parameter logistic equation using GraphPad Prism software (GraphPad Software, Inc). The equation may be expressed by the following formula:
Y=Bottom+(Top−Bottom)/(1+10̂((Log EC50−X)*HillSlope))
Where X is the logarithm of concentration, Y is the response and Y starts at Bottom and goes to Top with a sigmoid shape.

SMILES strings stand for the structures.

For orientation: IC50 means the concentration at which inhibition is half-maximal. Take `C[C@@H](C(N)=O)n1ccc2c(NC(=O)CC3(O)CC(C)(C)CC(C)(C)C3)cccc2c1=O` [Compound 556]: the inhibition at 0.3 µM lay in the range of 51 to 75% and the IC50 came out at 257 nM. On to `CC(C)[C@H](C(N)=O)n1ccc2c(NC(=O)CC3CCCCCC3)cccc2c1=O` [Compound 597, (R)-2-[5-(2-Cycloheptyl-acetylamino)-1-oxo-1H-isoquinolin-2-yl]-3-methyl-butyramide], for which the inhibition at 0.3 µM is > 76% and the IC50 was 2.38 nM. As for `O=C(CC1CCCCC1)Nc1cccc2c(=O)n(CCO)ccc12` [Compound 545], the inhibition at 0.3 µM is 0 to 25% and the IC50 was found to be 906 nM. For `NC(=O)[C@@H](CC1CCCCC1)n1ccc2c(NC(=O)CC34CC5CC(CC(C5)C3)C4)cccc2c1=O` [Compound 513] the same measures were > 76% and 33.7 nM. For the compound `CC(C)[C@H](C(=O)NC1CC1)n1ccc2c(NC(=O)CC34CC5CC(CC(C5)C3)C4)cccc2c1=O` [Compound 594], the inhibition at 0.3 µM fell in the range of 26 to 50% and the IC50 was determined as 303 nM. As to `CC(C)[C@H](C(=O)O)n1ccc2c(NC(=O)CC34CC5CC(CC(C5)C3)C4)cccc2c1=O` [Compound 603], the inhibition at 0.3 µM is > 76% and the IC50 was 22 nM. In the case of `NC(=O)C(CO)n1ccc2c(NC(=O)CC3CCCCCC3)cccc2c1=O` (stereo not drawn) [Compound 551, 2-[5-(2-Cycloheptyl-acetylamino)-1-oxo-1H-isoquinolin-2-yl]-3-hydroxy-propionamide], the inhibition at 0.3 µM was > 76% and the IC50 stood at 32.7 nM.

Take `CC1(C)CC(C)(C)CC(O)(CC(=O)Nc2cccc3c(=O)n(C(CO)CO)ccc23)C1` [Compound 573]: the inhibition at 0.3 µM is > 76% and the IC50 was found to be 81.3 nM. `CC(O)Cn1ccc2c(NC(=O)[C@H]3CC[C@H](C)CC3)cccc2c1=O` (stereo partly drawn) [Compound 563]: the inhibition at 0.1 µM is 0 to 25%. Consider `CNC(=O)[C@@H](C(C)C)n1ccc2c(NC(=O)CC34CC5CC(CC(C5)C3)C4)cccc2c1=O` [Compound 592, (R)-2-[5-(2-Adamantan-1-yl-acetylamino)-1-oxo-1H-isoquinolin-2-yl]-3,N-dimethyl-butyramide], for which the inhibition at 0.3 µM is > 76% and the IC50 was found to be 1.21 nM. As to `C[C@@H](CO)n1ccc2c(NC(=O)CC3CCCCCC3)cccc2c1=O` [Compound 605, 2-Cycloheptyl-N-[2-((S)-2-hydroxy-1-methyl-ethyl)-1-oxo-1,2-dihydro-isoquinolin-5-yl]-acetamide], the inhibition at 0.3 µM is > 76% and the IC50 turned out to be 66.5 nM. In the case of `C[C@H](C(=O)O)n1ccc2c(NC(=O)CC3CCCCCC3)cccc2c1=O` [Compound 607, (R)-2-[5-(2-Cycloheptyl-acetylamino)-1-oxo-1H-isoquinolin-2-yl]-propionic acid], the inhibition at 0.3 µM was > 76% and the IC50 came out at 92.1 nM. For `O=C(CC12CC3CC(CC(C3)C1)C2)Nc1cccc2c(=O)n(C[C@@H]3CCCN3)ccc12` [Compound 505] the same measures were > 76% and 0.65 nM. For `C[C@@H](CO)N1CCc2c(NC(=O)CC34CC5CC(C)(CC(C)(C5)C3)C4)cccc2C1=O` [Compound 535] the same measures were > 76% and 0.341 nM. Regarding `CC(O)Cn1ccc2c(NC(=O)C3C[C@@H]4CC[C@H]3C4)cccc2c1=O` (stereo partly drawn) [Compound 567], the inhibition at 0.1 µM was 26 to 50%. Consider `CC(C)C[C@H](CO)n1ccc2c(NC(=O)CC3(O)CCCCCC3)cccc2c1=O` [Compound 596], for which the inhibition at 0.3 µM is > 76% and the IC50 was 5.59 nM. With `CC1(C)CC(C)(C)CC(O)(CC(=O)Nc2cccc3c(=O)n(CCO)ccc23)C1` [Compound 546], the inhibition at 0.3 µM was > 76% and the IC50 was 135 nM. As for `O=C(CC12CC3CC(CC(C3)C1)C2)Nc1cccc2c(=O)n(CC3CCCN3)ccc12` (stereo not drawn) [Compound 504], the inhibition at 0.3 µM was > 76% and the IC50 stood at 1.56 nM. As for `NC(=O)Cn1ccc2c(NC(=O)CC34CC5CC(CC(C5)C3)C4)cccc2c1=O` [Compound 509], the inhibition at 0.3 µM was > 76% and the IC50 worked out at 0.271 nM. For `NC(=O)[C@H](Cc1ccccc1)n1ccc2c(NC(=O)CC34CC5CC(CC(C5)C3)C4)cccc2c1=O` [Compound 502], the inhibition at 0.1 µM was in the range of 51 to 75%. For `CC(C)(CO)n1ccc2c(NC(=O)CC3CCCCCC3)cccc2c1=O` [Compound 614], the inhibition at 0.3 µM was > 76% and the IC50 came out at 91.4 nM.

As to `CC(C)[C@H](C(=O)O)n1ccc2c(NC(=O)CC3CCCCCC3)cccc2c1=O` [Compound 610], the inhibition at 0.3 µM was > 76% and the IC50 was determined as 44.7 nM.

`NC(=O)[C@H](CO)n1ccc2c(NC(=O)CC3CCCCCC3)cccc2c1=O` [Compound 575, (S)-2-[5-(2-Cycloheptyl-acetylamino)-1-oxo-1H-isoquinolin-2-yl]-3-hydroxy-propionamide]: the inhibition at 0.3 µM was > 76% and the IC50 worked out at 40.8 nM. On to `CC(O)Cn1ccc2c(NC(=O)C34C[C@@H]5C[C@@H](C[C@@H]3C5)C4)cccc2c1=O` (stereo partly drawn) [Compound 566], for which the inhibition at 0.1 µM is 0 to 25%. Take `C[C@H](C(N)=O)n1ccc2c(NC(=O)CC3CC(C)(C)CC(C)(C)C3)cccc2c1=O` [Compound 588]: the inhibition at 0.3 µM is > 76% and the IC50 came to 0.929 nM.

On to `C[C@@H](CO)n1ccc2c(NC(=O)CC34CC5CC(C)(CC(C)(C5)C3)C4)cccc2c1=O` [Compound 524], for which the inhibition at 0.3 µM was > 76% and the IC50 was 0.204 nM.

Take `CC(C)(O)Cn1ccc2c(NC(=O)[C@H]3CC[C@H](C)CC3)cccc2c1=O` [Compound 568]: the inhibition at 0.1 µM lay in the range of 0 to 25%.

In the case of `O=C(CC1(O)CCCCCC1)Nc1cccc2c(=O)n(C(CO)CO)ccc12` [Compound 552], the inhibition at 0.3 µM was in the range of 0 to 25% and the concentration for half-maximal inhibition (IC50) is 760 nM. For `C[C@@H](CO)n1ccc2c(NC(=O)CC34CC5CC(CC(C5)C3)C4)cccc2c1=O` [Compound 521] the same measures were > 76% and 0.315 nM.

Turning to `C[C@H](C(N)=O)n1ccc2c(NC(=O)[C@H](C)C3CCCCCC3)cccc2c1=O` [Compound 608], the inhibition at 0.3 µM was > 76% and the IC50 turned out to be 70.8 nM.

Regarding `CC1(C)CC(CC(=O)Nc2cccc3c(=O)n([C@@H](C(N)=O)c4ccccc4)ccc23)CC(C)(C)C1` [Compound 593, (R)-2-{1-Oxo-5-[2-(3,3,5,5-tetramethylcyclohexyl)-acetylamino]-1H-isoquinolin-2-yl}-2-phenyl-acetamide], the inhibition at 0.3 µM was > 76% and the IC50 amounted to 4.09 nM. On to `NC(=O)C(Cc1c[nH]cn1)n1ccc2c(NC(=O)CC34CC5CC(CC(C5)C3)C4)cccc2c1=O` (stereo not drawn) [Compound 514], for which the inhibition at 0.3 µM was > 76% and the IC50 came to 1.36 nM.

`CC(C(N)=O)n1ccc2c(NC(=O)CC34CC5CC(C)(CC(C)(C5)C3)C4)cccc2c1=O` (stereo not drawn) [Compound 531]: the inhibition at 0.3 µM was > 76% and the IC50 turned out to be 4.13 nM.

For the compound `O=C(CC12CC3CC(CC(C3)C1)C2)Nc1cccc2c1CCN(CCO)C2=O` [Compound 549, 2-Adamantan-1-yl-N-[2-(2-hydroxy-ethyl)-1-oxo-1,2,3,4-tetrahydro-isoquinolin-5-yl]-acetamide], the inhibition at 0.3 µM is > 76% and the IC50 turned out to be 1.37 nM.

With `NC(=O)Cn1ccc2c(NC(=O)CC3CCCCCC3)cccc2c1=O` [Compound 561, 2-(5-(2-Cycloheptyl-acetylamino)-1-oxo-1H-isoquinolin-2-yl)-acetamide], the inhibition at 0.3 µM was > 76% and the IC50 came out at 38.2 nM. Consider `CC(C)C(CO)n1ccc2c(NC(=O)CC34CC5CC(CC(C5)C3)C4)cccc2c1=O` (stereo not drawn) [Compound 516, 2-Adamantan-1-yl-N-[2-(1-hydroxymethyl-2-methyl-propyl)-1-oxo-1,2-dihydro-isoquinolin-5-yl]-acetamide], for which the inhibition at 0.3 µM was > 76% and the IC50 was 0.049 nM.

With `CC(O)Cn1ccc2c(NC(=O)CC3C[C@@H]4CC[C@H]3C4)cccc2c1=O` (stereo partly drawn) [Compound 564], the inhibition at 0.1 µM lay within 51 to 75%. As for `C[C@@H](C(N)=O)n1ccc2c(NC(=O)CC3(O)CCCCCC3)cccc2c1=O` [Compound 557], the inhibition at 0.3 µM fell in the range of 26 to 50% and the IC50 came out at 355 nM. As to `C[C@@H](CO)N1CCc2c(NC(=O)CC34CC5CC(CC(C5)C3)C4)cccc2C1=O` [Compound 527], the inhibition at 0.3 µM is > 76% and the IC50 was determined as 0.149 nM.
